Experimental data: patent publication US9394555B2, “Compositions comprising a polypeptide having cellulolytic enhancing activity and a dioxy compound and uses thereof” (priority 2010, dated 2016)
Like-named read-outs stand apart in the source and are kept apart here.

Key:
[1] = biological target: T1, T. aurantiacus GH61A polypeptide (Thermoascus aurantiacus, UniProt G3XAP7, N13Y); format: biochemical; conditions: for hydrolysis of AVICEL in the presence of both T. aurantiacus GH61A polypeptide and dioxy compound relative to inhibition by the dioxy compound / dioxy compound effect(no GH61): dioxy compound 1 mM; for hydrolysis of AVICEL in the presence of both T. aurantiacus GH61A polypeptide and dioxy compound relative to inhibition by the dioxy compound: GH61A polypeptide 2 mg per g cellulose, cellulose 29.5 mg per ml; for dioxy compound effect(no GH61): AVICEL 29.5 mg cellulose per ml; for dioxy compound effect(no GH61) (Equation 3), ratio of percent conversion with/without dioxy compound: day 1 to day 8
Protocol: The cellulase preparation is designated herein as “Trichoderma reesei cellulase composition” unless specified otherwise.
Later experiments were mixed thoroughly prior to incubation in an IsoTemp incubator (Fisher Scientific, Hampton, N.H., USA) and prior to sampling for analysis, but were not continuously mixed.
Data were processed using MICROSOFT EXCEL™ software.

[2] = biological target: T1, T. aurantiacus GH61A polypeptide; assay: Microcrystalline cellulose conversion assay II (Examples 10, 11), T. reesei CEL7A cellobiohydrolase I + A. oryzae CEL3A beta-glucosidase; format: biochemical; conditions: dioxy compound 0.1% w/w alone, no enzymes; 72 hours, 50° C.
Protocol: A 5% microcrystalline cellulose slurry was prepared by addition of 2.5 g of AVICEL® PH101 to a graduated 50 ml screw-cap conical tube followed by approximately 40 ml of deionized water. Each conical tube was then mixed thoroughly by shaking/vortexing, and adjusted to 50 ml total with deionized water and mixed again. For samples containing dioxy compounds, a similar slurry was prepared by the addition of 100 mg of solid dioxy compound and 2.5 g of AVICEL® PH101 to a graduated 50 ml screw-cap conical tube followed by approximately 40 ml of deionized water. Each conical tube was then mixed thoroughly by shaking/vortexing, and adjusted to 50 ml total with deionized water and mixed again.
The dioxy compounds assayed include caffeic acid, dichlorophenolindophenol (DCPIP), ethyl gallate, gallic acid, 3,4-dihydroxybenzoic acid, pyrocatechol, pyrogallol, sinapinic acid (3,5 dimethoxy-4-hydroxy cinnamic acid), and tannic acid.
In all cases, the contents of the tube (5% microcrystalline cellulose slurry with or without 0.2% dioxy compound) were then quickly transferred to a 100 ml beaker and stirred rapidly with a magnetic stirrer. Five hundred μl aliquots of the 5% AVICEL® slurry were pipetted into wells of a 2.0 ml 96-deepwell plate (Axygen, Union City, Calif.) using a 1000 μl micropipette with a wide aperture tip (end of tip cut off about 2 mm from the base). One hundred μl of deionized water and 300 μl of 3.33 mM MnSO4-500 mM sodium acetate pH 5 were then added to each well. Enzyme mixtures were prepared and then added simultaneously to all wells in a volume of 100 μl, for a total of 1 ml in each reaction. […] All experiments reported were performed in triplicate.
Primary analysis of the hydrolysis reactions was performed using an AGILENT® 1100 HPLC with CHEMSTATION® software equipped with an AMINEX™ HPX-87H column. After approximately 4 days, the deep-well plate was removed from the incubator and chilled overnight to 4° C. The plate was then mixed well by inversion and briefly centrifuged at 52×g in a SORVALL® RT7 centrifuge for 10 seconds. Samples were then mixed by pipetting, and 200 μl from each well were transferred to a MULTISCREEN® HV centrifuge filter plate assembly. The centrifuge filter plate assembly was centrifuged at 2000 rpm in a SORVALL® RT7 centrifuge for 20 minutes. […] Sugars were detected using a refractive index detector with quantification by integration compared to purified sugar standards.
All HPLC data processing was performed using MICROSOFT EXCEL™ software. […] In this assay only glucose was measured since beta-glucosidase was at high levels in all samples but the controls. The degree of cellulose conversion was calculated using Equation 1. Triplicate data points were averaged and standard deviation was calculated.
The microcrystalline cellulose hydrolysis assay was performed as described in Example 10.
Data were collected and analyzed, as described in Example 10, after 72 hours of incubation at 50° C.

[3] = tested on: T. aurantiacus CEL5A endoglucanase II and P. brasilianum CEL3A beta-glucosidase; assay: Microcrystalline cellulose conversion assay I (Examples 8, 9) without GH61 polypeptide; format: biochemical, Thermoascus aurantiacus; Penicillium brasilianum; conditions: dioxy compound 0.3% w/w + endoglucanase II + beta-glucosidase (5 mg/g each), no GH61; 96 hours, at either 50° C. or 60° C.
Protocol: (§1) A 5% microcrystalline cellulose slurry was prepared by addition of 2.5 g of AVICEL®PH101 (Sigma-Aldrich, St. Louis, Mo., USA) to a graduated 50 ml screw-cap conical tube followed by 15 ml of 1 M sodium acetate pH 5 and 1 ml of 100 mM MnSO4 and approximately 20 ml of deionizer water. Each conical tube was then mixed thoroughly by shaking/vortexing, and adjusted to 50 ml total with deionized water and mixed again. Contents of the tube were then quickly transferred to a 100 ml beaker and stirred rapidly with a magnetic stirrer. Five hundred μl aliquots of the 5% AVICEL® slurry were pipetted into wells of a 2.0 ml 96-deepwell plate (Axygen, Union City, Calif., USA) using a 1000 μl micropipette with a wide aperture tip (end of tip cut off about 2 mm from the base). Three hundred μl of either deionized water or a 1% dioxy compound solution (dissolved in deionized water) was added to each well.
(§2) The dioxy compounds assayed include caffeic acid (Sigma-Aldrich, St. Louis, Mo., USA), dichlorophenolindophenol (DCPIP; Sigma-Aldrich, St. Louis, Mo., USA), ethyl gallate (Sigma-Aldrich, St. Louis, Mo., USA), gallic acid (Sigma-Aldrich, St. Louis, Mo., USA), 3,4-dihydroxybenzoic acid (Sigma-Aldrich, St. Louis, Mo., USA), pyrocatechol (Sigma-Aldrich, St. Louis, Mo., USA), pyrogallol (Sigma-Aldrich, St. Louis, Mo., USA), sinapinic acid (3,5 dimethoxy-4-hydroxy cinnamic acid; Apin Chemicals LTD, Abingdon, UK), and tannic acid (Sigma-Aldrich, St. Louis, Mo., USA).
(§3) Enzyme mixtures were prepared and then added simultaneously to all wells in a volume of 200 μl, for a total of 1 ml in each reaction. […] All experiments reported were performed in triplicate.
(§4) After approximately 4 days, the deep-well plate was removed from the incubator and chilled overnight to 4° C. The plate was then mixed well by inversion and briefly centrifuged at 52×g in a SORVALL® RT7 centrifuge (Thermo Fisher Scientific, Waltham, Mass., USA) for 10 seconds. Samples were then mixed by pipetting, and 200 μl from each well were transferred to a MULTISCREEN® HV centrifuge filter plate assembly (Millipore, Bedford, Mass., USA). The centrifuge filter plate assembly was centrifuged at 2000 rpm in a SORVALL® RT7 centrifuge for 20 minutes. […] Sugars were detected using a refractive index detector (Agilent Technologies, Inc., Santa Clara, Calif., USA) with quantification by integration compared to purified sugar standards.
(§5) In this assay only glucose was measured since beta-glucosidase was at high levels in all samples but the controls.
(§6) A limit digest was performed to determine the total concentration accessible glucose equivalents using 100 mg of T. reesei cellulase (CELLIC™ CTec, Novozymes A/S, Bagsvaerd, Denmark) per gram cellulose, Triplicate data points were averaged and standard deviation was calculated.

[4] = tested on: T. terrestris GH61E polypeptide; assay: Microcrystalline cellulose conversion assay I (Examples 8, 9) with T. terrestris GH61E polypeptide; format: biochemical, Thielavia terrestris; conditions: 96 hours
Protocol: as §1, §2, §3, §4, §5, §6

[5] = AVICEL 14 mg cellulose per ml, dioxy compound 5 mM, T. aurantiacus GH61A polypeptide 0.4 mg per g cellulose, 1, 3, and 7 days
[6] = AVICEL, T. reesei cellulase composition, dioxy compound 5 mM, T. aurantiacus GH61A polypeptide present, day 1
[7] = AVICEL, T. reesei cellulase composition, dioxy compound 5 mM, T. aurantiacus GH61A polypeptide present, day 5
[8] = AVICEL, T. reesei cellulase composition, dioxy compound 5 mM, T. aurantiacus GH61A polypeptide present, day 8
[9] = AVICEL, T. reesei cellulase composition, dioxy compound 5 mM
[10] = AVICEL, T. reesei cellulase composition, dioxy compound 5 mM, day 5 (Example 24)
[11] = dioxy compound 0.3% w/w + T. terrestris GH61E polypeptide (10 mg/g) + endoglucanase II + beta-glucosidase (5 mg/g each), 50° C.
[12] = dioxy compound 0.3% w/w + T. terrestris GH61E polypeptide (10 mg/g) + endoglucanase II + beta-glucosidase (5 mg/g each), 60° C.

T1 sequence (G3XAP7 whole entry N13Y): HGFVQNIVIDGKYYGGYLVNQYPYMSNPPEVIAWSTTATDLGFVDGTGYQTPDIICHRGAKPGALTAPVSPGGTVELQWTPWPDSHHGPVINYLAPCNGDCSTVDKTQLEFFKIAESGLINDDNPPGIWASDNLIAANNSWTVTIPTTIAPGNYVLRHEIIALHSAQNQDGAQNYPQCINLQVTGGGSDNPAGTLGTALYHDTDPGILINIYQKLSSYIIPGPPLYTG

OCCCO [1,3-propanediol]
dioxy compound effect(+GH61) (Equation 4) [1, 5]: greater than 1
GH61 effect (Equation 5) ([1]; AVICEL 14 mg cellulose per ml, dioxy compound 5 mM, T. aurantiacus GH61A polypeptide 0.4 mg per g cellulose, 1, 3, and 7 days, increasing as hydrolysis progressed): greater than 1
dioxy compound effect(no GH61) (Equation 3) ([1]; AVICEL 14 mg cellulose per ml, dioxy compound 5 mM, 1, 3, and 7 days, especially early stages): greater than 1

CC(O)CC(C)O (centres unmarked) [2,4-pentanediol]
dioxy compound effect(+GH61) (Equation 4) [1, 5]: greater than 1
GH61 effect (Equation 5) ([1]; AVICEL 14 mg cellulose per ml, dioxy compound 5 mM, T. aurantiacus GH61A polypeptide 0.4 mg per g cellulose, later hydrolysis stages (day 7)): greater than 1
dioxy compound effect(no GH61) (Equation 3) ([1]; AVICEL 14 mg cellulose per ml, dioxy compound 5 mM, day 1): greater than 1

COc1cccc(OC)c1O [2,6-dimethoxyphenol]
hydrolysis of AVICEL in the presence of both T. aurantiacus GH61A polypeptide and dioxy compound relative to inhibition by the dioxy compound [1]: overall enhancement of cellulolysis

O=C(O)c1ccc(O)c(O)c1 [3,4-dihydroxybenzoic acid]
conversion (hydrolysis) of the microcrystalline cellulose [2]: no significant hydrolysis

CCOCC(O)CO (centres unmarked) [3-ethoxy-1,2-propanediol, 3-ethyoxy-1,2-propanediol]
dioxy compound effect(no GH61) ([1]; 3 days): 1.11±0.0167
dioxy compound effect(no GH61) ([1]; 7 days): 1.20±0.0210

Oc1ccc(Cl)cc1O [4-chloro-1,2-benzenediol]
dioxy compound effect(+GH61) (Equation 4) [1, 6]: increased
dioxy compound effect(+GH61) (Equation 4) [1, 7]: less than 1
dioxy compound effect(+GH61) (Equation 4) [1, 8]: less than 1
dioxy compound effect(no GH61) (Equation 3), ratio of percent conversion with/without dioxy compound [1, 9]: less than 1
GH61 effect (Equation 5), ratio of percent conversion with/without GH61 polypeptide ([1]; AVICEL, T. reesei cellulase composition, dioxy compound 5 mM, day 1 (Example 24)): greater than 1
GH61 effect (Equation 5) [1, 10]: greater than 1

O=[N+]([O-])c1ccc(O)c(O)c1 [4-nitro-1,2-benzenediol]
dioxy compound effect(+GH61) (Equation 4) [1, 6]: less than 1
dioxy compound effect(+GH61) (Equation 4) [1, 7]: less than 1
dioxy compound effect(+GH61) (Equation 4) [1, 8]: less than 1
dioxy compound effect(no GH61) (Equation 3), ratio of percent conversion with/without dioxy compound [1, 9]: less than 1
GH61 effect (Equation 5) [1, 10]: greater than 1
GH61 effect (Equation 5) ([1]; AVICEL, T. reesei cellulase composition, dioxy compound 5 mM, day 8 (Example 24)): greater than 1

O=C1C=CC(=Nc2cc(Cl)c(O)c(Cl)c2)C=C1 [DCPIP, dichlorophenolindophenol]
conversion (hydrolysis) of the microcrystalline cellulose [2]: no significant hydrolysis

O=C(O)/C=C/c1ccc(O)c(O)c1 [caffeic acid]
conversion (hydrolysis) of the microcrystalline cellulose [2]: no significant hydrolysis
change in conversion of microcrystalline cellulose compared to the enzymes in the absence of the dioxy compound [3]: no significant change
conversion of microcrystalline cellulose [4, 11]: 4.4±0.1%
conversion of microcrystalline cellulose [4, 12]: 7.0±0.1%

COC(=O)c1ccc(O)cc1 [methyl-4-hydroxybenzoate]
hydrolysis of AVICEL in the presence of both T. aurantiacus GH61A polypeptide and dioxy compound relative to inhibition by the dioxy compound [1]: overall enhancement of cellulolysis

COc1cc(C=CC(=O)O)cc(OC)c1O [sinapinic acid, 3,5 dimethoxy-4-hydroxy cinnamic acid]
change in conversion of microcrystalline cellulose compared to the enzymes in the absence of the dioxy compound [3]: no significant change
conversion of microcrystalline cellulose [4, 11]: 6.3±0.1%
conversion of microcrystalline cellulose [4, 12]: 9.2±0.1%

O=C(OC[C@H]1O[C@@H](OC(=O)c2cc(O)c(O)c(OC(=O)c3cc(O)c(O)c(O)c3)c2)[C@H](OC(=O)c2cc(O)c(O)c(OC(=O)c3cc(O)c(O)c(O)c3)c2)[C@@H](OC(=O)c2cc(O)c(O)c(OC(=O)c3cc(O)c(O)c(O)c3)c2)[C@@H]1OC(=O)c1cc(O)c(O)c(OC(=O)c2cc(O)c(O)c(O)c2)c1)c1cc(O)c(O)c(OC(=O)c2cc(O)c(O)c(O)c2)c1 [tannic acid]
change in conversion of microcrystalline cellulose compared to the enzymes in the absence of the dioxy compound [3]: no significant change
conversion of microcrystalline cellulose [4, 11]: 5.7±0.1%
conversion of microcrystalline cellulose [4, 12]: 6.0±0.2%

O=C(O)C(O)C(O)C(=O)O (centres unmarked) [tartrate, tartaric acid]
dioxy compound effect(no GH61) ([1]; 3 days): 0.984±0.00843
dioxy compound effect(no GH61) ([1]; 7 days): 1.02±0.0573

B1: T. terrestris GH61E polypeptide: GH61E polypeptide having cellulolytic enhancing activity (SEQ ID NO: 8), recombinantly produced in Aspergillus oryzae JaL250 (protein, listed as Thielavia terrestris)
chain: MLANGAIVFLAAALGVSGHYTWPRVNDGADWQQVRKADNWQDNGYVGDVTSPQIRCFQATPSPAPSVLNTTAGSTVTYWANPDVYHPGPVQFYMARVPDGEDINSWNGDGAVWFKVYEDHPTFGAQLTWPSTGKSSFAVPIPPCIKSGYYLLRAEQIGLHVAQSVGGAQFYISCAQLSVTGGGSTEPPNKVAFPGAYSATDPGILINIYYPVPTSYQNPGPAVFSC
conversion of microcrystalline cellulose ([4]; T. terrestris GH61E polypeptide (10 mg per g cellulose) + endoglucanase II + beta-glucosidase (5 mg/g each), no dioxy compound, 50° C.): 2.8±0.1%
conversion of microcrystalline cellulose ([4]; T. terrestris GH61E polypeptide (10 mg per g cellulose) + endoglucanase II + beta-glucosidase (5 mg/g each), no dioxy compound, 60° C.): 3.1±0.1%
